The source of these data is patent US20190218588A1, “NOVEL CELL CULTURE METHOD, CELL CULTURE SYSTEM AND USES THEREOF” (priority 2016, published 2019).

This data set has as its system human hepatocytes cultured in human plasma medium. Type of data set: cell-based.

Take `COc1cc2c(c3oc(=O)c4c(c13)CCC4=O)[C@@H]1C=CO[C@@H]1O2` [Aflatoxin B1]: the “UC50 value after day 10 treatment relative to 2-day treatment (fold lower)” value was found to be 19 × and the “cytotoxicity to human hepatocytes” value is listed as “cytotoxic”.
